The values below come from patent publication US8524718B2, “Heteroaromatic derivatives and their use as positive allosteric modulators of metabotropic glutamate receptors” (Addex Pharma S.A., priority 2007, dated 2013).

Each structure is given as a SMILES string. Bounds are passed on as bounds.

T1 sequence (Q14833 33-912): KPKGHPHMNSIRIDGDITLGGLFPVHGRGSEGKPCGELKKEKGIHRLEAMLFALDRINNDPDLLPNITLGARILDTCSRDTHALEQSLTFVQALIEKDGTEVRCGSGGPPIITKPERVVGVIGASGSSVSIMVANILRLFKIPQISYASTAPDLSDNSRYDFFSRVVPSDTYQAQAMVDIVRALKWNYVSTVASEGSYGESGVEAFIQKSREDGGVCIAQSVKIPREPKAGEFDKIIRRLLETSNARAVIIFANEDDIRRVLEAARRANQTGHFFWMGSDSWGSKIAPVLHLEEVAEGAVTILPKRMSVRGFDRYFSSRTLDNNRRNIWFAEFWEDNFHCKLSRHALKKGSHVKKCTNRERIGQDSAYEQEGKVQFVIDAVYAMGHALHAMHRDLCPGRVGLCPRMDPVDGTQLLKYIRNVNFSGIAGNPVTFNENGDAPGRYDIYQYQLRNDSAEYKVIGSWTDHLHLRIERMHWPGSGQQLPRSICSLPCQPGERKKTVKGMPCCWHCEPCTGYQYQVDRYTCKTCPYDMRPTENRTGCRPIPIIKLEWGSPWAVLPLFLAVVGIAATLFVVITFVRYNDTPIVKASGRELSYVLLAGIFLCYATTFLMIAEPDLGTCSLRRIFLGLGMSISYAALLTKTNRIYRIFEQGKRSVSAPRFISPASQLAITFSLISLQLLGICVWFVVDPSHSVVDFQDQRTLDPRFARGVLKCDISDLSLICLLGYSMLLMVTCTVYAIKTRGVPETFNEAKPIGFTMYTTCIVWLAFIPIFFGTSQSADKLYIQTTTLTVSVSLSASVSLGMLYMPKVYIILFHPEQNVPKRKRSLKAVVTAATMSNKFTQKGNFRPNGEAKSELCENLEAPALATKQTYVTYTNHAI

The first series concerns the target T1, recombinant human mGluR4a receptors (Homo sapiens, UniProt Q14833).
T1 construct: expressed in transfected cells
Nature of the series: mGluR4 assay on HEK-expressing human mGluR4 (fluorescent cell based Ca2+ mobilization assay, FLIPR). The note with it: HEK-293 cells expressing hmGluR4; enhancement of EC25 glutamate response; mean of at least three independent experiments in duplicate; read-out: Ca^2+ Flux (mean EC50). The text has this:
mGluR4 Assay on HEK-Expressing Human mGluR4 The compounds of the present invention are positive allosteric modulators of mGluR4 receptor. Their activity was examined on recombinant human mGluR4a receptors by detecting changes in intracellular Ca^2+ concentration, using the fluorescent Ca^2+-sensitive dye Fluo-4-(AM) and a Fluorometric Imaging Plate Reader (FLIPR, Molecular Devices, Sunnyvale, Calif.) The cDNA encoding the human metabotropic glutamate receptor (hmGluR4), (accession number NM_000841.1, NCBI Nucleotide database browser), was subcloned into an expression vector containing also the hygromycin resistance gene. In parallel, the cDNA encoding a G protein allowing redirection of the activation signal to intracellular calcium flux was subcloned into a different expression vector containing also the puromycin resistance gene. Transfection of both these vectors into HEK293 cells with PolyFect reagent (Qiagen) according to supplier's protocol, and hygromycin and puromycin treatment allowed selection of antibiotic resistant cells which had integrated stably one or more copies of the plasmids. Positive cellular clones expressing hmGluR4 were identified in a functional assay measuring changes in calcium fluxes in response to glutamate or selective known mGluR4 orthosteric agonists and antagonists. HEK-293 cells expressing hmGluR4 were maintained in media containing DMEM, dialyzed Fetal Calf Serum (10%), Glutamax™ (2 mM), Penicillin (100 units/mL), Streptomycin (100 μg/mL), Geneticin (100 μg/mL) and Hygromycin-B (40 μg/mL) and puromycin (1 μg/mL) at 37° C./5% CO2. Human mGluR4 HEK-293 cells were plated out 24 hours prior to FLIPR^384 assay in black-walled, clear-bottomed, poly-L-ornithine-coated 384-well plates at a density of 25,000 cells/well in a glutamine/glutamate free DMEM medium containing foetal bovine serum (10%), penicillin (100 units/mL) and streptomycin (100 μg/mL) at 37 C/5% CO2. On the day of the assay, the medium was aspirated and the cells were loaded with a 3 μM solution of Fluo-4-AM (LuBioScience, Lucerne, Switzerland) in 0.03% pluronic acid. After 1 hour at 37 C/5% CO2, the non incorporated dye was removed by washing cell plate with the assay buffer and the cells were left in the dark at room temperature for six hours before testing. All assays were performed in a pH 7.4 buffered-solution containing 20 mM HEPES, 143 mM NaCl, 6 mM KCl, 1 mM MgSO4, 1 mM CaCl2, 0.125 mM sulfapyrazone, 0.1% glucose. After 10 s of basal fluorescence recording, various concentrations of the compounds of the invention were added to the cells. Changes in fluorescence levels were first monitored for 180 s in order to detect any agonist activity of the compounds. Then the cells were stimulated by an EC25 glutamate concentration for an additional 110 s in order to measure enhancing activities of the compounds of the invention. EC25 glutamate concentration is the concentration giving 25% of the maximal glutamate response. The concentration-response curves of representative compounds of the present invention were generated using the Prism GraphPad software (Graph Pad Inc, San Diego, USA). The curves were fitted to a four-parameter logistic equation: (Y=Bottom+(Top−Bottom)/(1+10^((Log EC50−X)*Hill Slope) allowing the determination of EC50 values. The Table 5 below represents the mean EC50 obtained from at least three independent experiments of selected molecules performed in duplicate.
With `Fc1sc(Nc2ccccn2)nc1-c1cn[nH]c1` [Compound 1-56, 5-Fluoro-4-(1H-pyrazol-4-yl)-N-(pyridin-2-yl)thiazol-2-amine], the EC50 is less than 0.5 µM.

As for `Cc1n[nH]cc1-c1nsc(Nc2ccccc2F)n1` [Compound 1-4, N-(2-Fluorophenyl)-3-(3-methyl-1H-pyrazol-4-yl)-1,2,4-thiadiazol-5-amine], the EC50 lay within 0.5 to 1 µM.

In the case of `Cc1n[nH]cc1-c1nsc(Nc2ccccc2)n1` [Compound 1-1, 3-(3-methyl-1H-pyrazol-4-yl)-N-phenyl-1,2,4-thiadiazol-5-amine], the EC50 fell in the range of 1 to 10 µM.

System in another series: not given
Assay: not given
Conditions: not given
With `Clc1cccc(Nc2nc(-c3cn[nH]c3)ns2)n1` [Compound 1-42, N-(6-Chloropyridin-2-yl)-3-(1H-pyrazol-4-yl)-1,2,4-thiadiazol-5-amine], the melting point is 317 to 319 °C.

`Cc1sc(Nc2ccccn2)nc1-c1cnn(C(=O)C2CCCCC2)c1` [Compound 1-28, Cyclohexyl(4-(5-methyl-2-(pyridin-2-ylamino)thiazol-4-yl)-1H-pyrazol-1-yl)methanone] came in with a melting point of 140 to 144 °C.

In turn, `Cc1sc(NC2CCCCC2)nc1-c1cn[nH]c1` [Compound 1-29, N-Cyclohexyl-5-methyl-4-(1H-pyrazol-4-yl)thiazol-2-amine] gave a melting point of 205 to 207 °C.

`CCc1cccc(Nc2nc(-c3cn[nH]c3)c(C)s2)n1` [Compound 1-48, N-(6-Ethylpyridin-2-yl)-5-methyl-4-(1H-pyrazol-4-yl)thiazol-2-amine]: the melting point is 276 to 278 °C.

Take `Cc1ccnc(Nc2nc(-c3c[nH]nc3C)cs2)c1` [Compound 1-21, 4-(3-Methyl-1H-pyrazol-4-yl)-N-(4-methylpyridin-2-yl)thiazol-2-amine]: the melting point lay in the range of 276 to 278 °C.

The compound `Cc1ccnc(Nc2nc(-c3cn[nH]c3)c(C)s2)c1` [Compound 1-19, 5-Methyl-N-(4-methylpyridin-2-yl)-4-(1H-pyrazol-4-yl)thiazol-2-amine] showed a melting point of 274 °C.

As to `Cc1cccc(Nc2nc(-c3cnn(C(=O)C(C)C)c3)c(C)s2)n1` [Compound 1-30, 2-Methyl-1-(4-(5-methyl-2-(6-methylpyridin-2-ylamino)thiazol-4-yl)-1H-pyrazol-1-yl)propan-1-one], the melting point was in the range of 159 to 160 °C.

For the compound `Cc1sc(Nc2ccccn2)nc1-c1cnn(C(=O)NC2CC2)c1` [Compound 1-59, N-Cyclopropyl-4-(5-methyl-2-(pyridin-2-ylamino)thiazol-4-yl)-1H-pyrazole-1-carboxamide], the melting point was 270 °C (dec.).

In turn, `Cc1sc(NC2CCCC2)nc1-c1cn[nH]c1` [Compound 1-37, N-Cyclopentyl-5-methyl-4-(1H-pyrazol-4-yl)thiazol-2-amine] returned a melting point of 197 °C.

`Cc1n[nH]cc1-c1csc(Nc2cc(F)ccc2F)n1` [Compound 1-17, N-(2,5-Difluorophenyl)-4-(3-methyl-1H-pyrazol-4-yl)thiazol-2-amine]: the melting point is 196 to 199 °C.

`Fc1ccc(F)c(Nc2cccc(-c3cn[nH]c3)n2)c1` [Compound 2-1, N-(2,5-Difluorophenyl)-6-(1H-pyrazol-4-yl)pyridin-2-amine]: the melting point fell in the range of 198 to 199 °C.

`CCc1sc(Nc2ccccn2)nc1-c1cn[nH]c1` [Compound 1-22, 5-Ethyl-4-(1H-pyrazol-4-yl)-N-(pyridin-2-yl)thiazol-2-amine] registered a melting point of 243 to 246 °C.

On to `Cc1sc(Nc2ccccn2)nc1-c1cnn(S(C)(=O)=O)c1` [Compound 1-45, 5-Methyl-4-(1-(methylsulfonyl)-1H-pyrazol-4-yl)-N-(pyridin-2-yl)thiazol-2-amine], for which the melting point amounted to 193 °C.

On to `Cc1cccc(Nc2nc(-c3c[nH]nc3C)ns2)n1` [Compound 1-40, 3-(3-Methyl-1H-pyrazol-4-yl)-N-(6-methylpyridin-2-yl)-1,2,4-thiadiazol-5-amine], for which the melting point is more than 300 °C.

The compound `Cc1sc(Nc2ccccn2)nc1-c1cnn(C(=O)NC(C)C)c1` [Compound 1-50, N-Isopropyl-4-(5-methyl-2-(pyridin-2-ylamino)thiazol-4-yl)-1H-pyrazole-1-carboxamide] yielded a melting point of 297 to 298 °C.

For `Cc1sc(Nc2ccc(F)cn2)nc1-c1cn[nH]c1` [Compound 1-24, N-(5-Fluoropyridin-2-yl)-5-methyl-4-(1H-pyrazol-4-yl)thiazol-2-amine], the melting point was determined as 320 °C.

`Cc1sc(Nc2ncc(F)cc2F)nc1-c1cn[nH]c1` [Compound 1-20, N-(3,5-Difluoropyridin-2-yl)-5-methyl-4-(1H-pyrazol-4-yl)thiazol-2-amine] returned a melting point of more than 300 °C.

As for `Cc1cccc(Nc2nc(-c3cn[nH]c3)ns2)n1` [Compound 1-38, N-(6-Methylpyridin-2-yl)-3-(1H-pyrazol-4-yl)-1,2,4-thiadiazol-5-amine], the melting point was determined as 276 °C.

Regarding `OCc1sc(Nc2ccccn2)nc1-c1cn[nH]c1` [Compound 1-57, (4-(1H-Pyrazol-4-yl)-2-(pyridin-2-ylamino)thiazol-5-yl)methanol], the melting point was 250 °C (dec.).

Regarding `Cc1n[nH]cc1-c1nsc(Nc2ncc(F)cc2F)n1` [Compound 1-44, N-(3,5-Difluoropyridin-2-yl)-3-(3-methyl-1H-pyrazol-4-yl)-1,2,4-thiadiazol-5-amine], the melting point is more than 300 °C.

`Cc1n[nH]cc1-c1nsc(Nc2cccc(Cl)n2)n1` [Compound 1-41, N-(6-Chloropyridin-2-yl)-3-(3-methyl-1H-pyrazol-4-yl)-1,2,4-thiadiazol-5-amine]: the melting point was 285 °C (dec.).

In turn, `Cc1sc(Nc2cnccn2)nc1-c1cn[nH]c1` [Compound 1-39, 5-Methyl-N-(pyrazin-2-yl)-4-(1H-pyrazol-4-yl)thiazol-2-amine] registered a melting point of 252 °C.

The compound `Cc1cccc(Nc2nc(-c3cn[nH]c3)c(Cl)s2)n1` [Compound 1-52, 5-Chloro-N-(6-methylpyridin-2-yl)-4-(1H-pyrazol-4-yl)thiazol-2-amine] came in with a melting point of 278 to 282 °C.

Turning to `Cc1sc(Nc2cccc(F)n2)nc1-c1cnn(C(N)=O)c1`, the melting point is 230 °C (dec.).

Regarding `Cc1cccc(Nc2nc(-c3c[nH]nc3C)cs2)n1` [Compound 1-23, 4-(3-Methyl-1H-pyrazol-4-yl)-N-(6-methylpyridin-2-yl)thiazol-2-amine], the melting point was 295 °C (dec.).

`Cc1sc(Nc2ccccn2)nc1-c1cnn(C(=O)C(C)C)c1` [Compound 1-26, 2-Methyl-1-(4-(5-methyl-2-(pyridin-2-ylamino)thiazol-4-yl)-1H-pyrazol-1-yl)propan-1-one]: the melting point is 168 °C.

`Cc1n[nH]cc1-c1nc(Nc2ccccn2)sc1C` [Compound 1-15, 5-Methyl-4-(3-methyl-1H-pyrazol-4-yl)-N-(pyridin-2-yl)thiazol-2-amine] came in with a melting point of 218 °C.

`Cc1sc(Nc2ccccn2)nc1-c1cnn(C(=O)N2CCCCC2)c1` [Compound 1-34, (4-(5-Methyl-2-(pyridin-2-ylamino)thiazol-4-yl)-1H-pyrazol-1-yl)(piperidin-1-yl)methanone]: the melting point lay within 137 to 138 °C.

On to `c1ccc(Nc2nc(-c3cn[nH]c3)ns2)nc1` [Compound 1-35, 3-(1H-Pyrazol-4-yl)-N-(pyridin-2-yl)-1,2,4-thiadiazol-5-amine], for which the melting point is 300 °C (dec.).

`CC(C)C(=O)n1cc(-c2nsc(Nc3ccccn3)n2)cn1` [Compound 1-36, 2-Methyl-1-(4-(5-(pyridin-2-ylamino)-1,2,4-thiadiazol-3-yl)-1H-pyrazol-1-yl)propan-1-one] had a melting point of 248 to 254 °C.
